Here are results for two compounds from patent publication US11746116B2, “Antibiotic resistance breakers” (KING'S COLLEGE LONDON, priority 2017, dated 2023).

One assay deals with PA01. Briefly: MIC, microdilution broth method. In kind it is cell-based, Pseudomonas aeruginosa. Conditions: PA01; Normal (no PMBN); in µg/mL.
For a further assay, the system named is UKA12. Put plainly: MIC, A. baumannii extended panel. In kind it is cell-based.
The next assay deals with VSE775. Briefly: MIC, microdilution broth method. In kind it is cell-based, Enterococcus faecalis. The settings on record: VSE775; in µg/mL.
For a further assay, the system named is VRE12204. Put plainly: MIC, microdilution broth method. In kind it is cell-based, Enterococcus faecium. Conditions: VRE12204; in µg/mL.
A further assay deals with UKA10. Put plainly: MIC, A. baumannii extended panel. The assay is classed as cell-based.
The subject of another assay is Ab17978. Briefly: MIC, microdilution broth method. Conditions: Ab17978; Normal (no PMBN); in µg/mL. In kind it is cell-based.
A further assay deals with 12156. Briefly: MIC, A. baumannii extended panel. In kind it is cell-based. The settings on record: A. baumannii 12156.
For the next assay, the system named is 13423. Put plainly: MIC, A. baumannii extended panel. The settings on record: A. baumannii 13423. In kind it is cell-based.
The next assay concerns MSSA9144. Briefly: MIC, microdilution broth method. The assay is classed as cell-based, Staphylococcus aureus. The settings on record: MSSA9144; in µg/mL.
The test system of the next assay is UKA13. Put plainly: MIC, A. baumannii extended panel. The assay is classed as cell-based.
A further assay deals with SA2. Briefly: MIC, extended Gram-positive panel. The assay is classed as cell-based, S. aureus. The settings on record: S. aureus SA2.
The test system of a further assay is UKA7. Briefly: MIC, A. baumannii extended panel. In kind it is cell-based.
Another assay has as its system 13302. Put plainly: MIC, A. baumannii extended panel. The assay is classed as cell-based. Conditions: A. baumannii 13302.
The next assay has as its system W1. Put plainly: MIC, A. baumannii extended panel. In kind it is cell-based.
The test system of the next assay is UKA1. Briefly: MIC, A. baumannii extended panel. In kind it is cell-based.
Another assay has as its system OXA23.1. Put plainly: MIC, A. baumannii extended panel. In kind it is cell-based. The settings on record: A. baumannii OXA23.1.
The subject of another assay is A601. Put plainly: MIC, A. baumannii extended panel. In kind it is cell-based.
The test system of another assay is UKA16. Briefly: MIC, A. baumannii extended panel. The assay is classed as cell-based.

In brackets after ≈: the same amount, converted by molar mass.

`O=C(O)c1cn(C2CC2)c2cc(N3CCNCC3)c(F)cc2c1=O` [Ciprofloxacin, ciprofloxacin, reference compound]: the MIC came to 0.25 against PA01; 512 µg/mL (≈ 1550 µM) with UKA12; 1 against VSE775; 1 against VRE12204; 256 µg/mL (≈ 773 µM) with UKA10; 0.25 in the assay with Ab17978. Further, the MIC in the assay on 12156 was 1 µg/mL (≈ 3.02 µM); with 13423, 256 µg/mL (≈ 773 µM); with MSSA9144, 0.25; in the assay with UKA13, 512 µg/mL (≈ 1550 µM); in the assay with SA2, 1 µg/mL (≈ 3.02 µM); against UKA7, above 512 µg/mL.
Take `Cl.O=C(O)c1cn(C2CC2)c2cc(N3CCN(Cc4ccc(CO)cc4)CC3)c(F)cc2c1=O` [ML-77-158]: the MIC in the assay with 13302 stood at 64 µg/mL; with UKA12, 32 µg/mL; against W1 it was 32 µg/mL; in the assay with UKA1 it was 16 µg/mL; in the assay on OXA23.1, 64 µg/mL; in the assay with A601, 8 µg/mL. Besides, the MIC in the assay on 12156 was 0.5 µg/mL; with UKA13, 32 µg/mL; against UKA7 it was 64 µg/mL; against UKA16 it was 32 µg/mL.
